Reference: patent US8686048B2, “Immunomodulator and anti-inflammatory compounds” (Rhizen Pharmaceuticals SA, priority 2010, dated 2014)

Tests used:
IL-17 = experiment: Inhibition of IL-17 release from mouse splenocytes (PMA + ionomycin, ELISA); format: cell-based, Balb/c mice; conditions: Splenocyte, 10 μM, 3 h
Procedure: 2. Inhibition of IL-17 Release from Mouse Splenocytes:
Splenocytes isolated from Balb/c mice were re-suspended in RPMI medium at a concentration of 1×10^6 cells/ml and seeded in a 6 well plate. Cells were incubated with desired concentrations of the inhibitor for 15 min prior to induction with 10 ng/ml PMA+1 μM ionomycin. After a 3 h incubation, supernatant was collected and analyzed for IL-17 concentration using an ELISA kit. Data were analyzed using GraphPad Prism. IC50 values for each compound were determined based on the percent inhibition due to the test compound compared to the control.

h-DHODH = biological target: T1, h-DHODH (Homo sapiens, UniProt Q02127); experiment: Dihydro-orotate dehydrogenase inhibition assay (U937 membrane preparations, DCIP reduction); format: biochemical; conditions: U937 membrane preparation; for inhibition at 0.3 µM: compound tested at 0.3 uM (footnote *)
T1 construct: endogenous in cells; host or cells: U937 cells (membrane fraction, solubilised with 1% octyl glucoside)
Procedure: Dihydro-Orotate Dehydrogenase Inhibition Assay
Dihydro-orotate dehydrogenase (DHODH) catalyzes the […] of dihydro-orotate to orotate during de novo biosynthesis of pyrimidines Inhibition of DHODH activity in U937 membrane preparations was measured by the dihydro-orotate driven reduction of 2,6 dichloroindophenol (DCIP).
U937 cells were homogenized in 20 mM Tris/HCl (pH 7.2) containing 1 mM EDTA. […] Following washes, the pellet was dissolved in 20 mM Tris/HCl containing 150 mM NaCl, 1 mM EDTA, and 1% octyl glucoside on ice for 1 h. Particulate matter was removed by centrifugation at 100000×g for 1 h at 4° C. […] The mixture was incubated at 37° C. for 4 h before measuring the change in absorbance on a plate reader (BMG Labtech., Germany) at 600 nm. Data were analyzed using GraphPad Prism. IC50 for each compound was determined based on the percent inhibition of dihydro-orotate […].

T1 sequence (Q02127 whole entry): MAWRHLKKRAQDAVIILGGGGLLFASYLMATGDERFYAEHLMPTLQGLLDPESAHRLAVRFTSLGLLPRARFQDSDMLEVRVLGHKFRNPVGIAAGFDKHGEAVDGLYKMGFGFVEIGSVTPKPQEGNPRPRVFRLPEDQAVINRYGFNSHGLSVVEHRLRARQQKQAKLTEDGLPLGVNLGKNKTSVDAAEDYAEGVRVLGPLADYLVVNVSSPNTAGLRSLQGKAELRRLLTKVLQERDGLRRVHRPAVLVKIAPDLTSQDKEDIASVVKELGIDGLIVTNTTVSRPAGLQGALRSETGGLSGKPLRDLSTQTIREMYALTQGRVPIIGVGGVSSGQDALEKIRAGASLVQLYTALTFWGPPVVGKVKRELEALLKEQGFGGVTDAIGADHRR

Row | Structure (SMILES) | inhibition at 10 µM (IL-17) | inhibition at 1 µM (h-DHODH) | IC50 (h-DHODH) | inhibition at 0.3 µM (h-DHODH)
1 | CCOc1cccc(-c2cc(F)c(NC(=O)c3c(Cl)ccc(Cl)c3C(=O)O)c(F)c2)c1 [Example 28, 3,6-dichloro-2-(3′-ethoxy-3,5-difluorobiphenyl-4-ylcarbamoyl)benzoic acid] | 18.8% | 12.9% | – | –
2 | CCOc1cccc(-c2cc(F)c(NC(=O)c3ccccc3CO)c(Cl)c2)c1 [Example 36, N-(3-Chloro-3′-ethoxy-5-fluorobiphenyl-4-yl)-2-(hydroxymethyl)benzamide] | 45.5% | – | – | –
3 | CCOc1cccc(-c2cc(F)c(NC(=O)c3ccccc3CO)c(F)c2)c1 [Example 37, N-(3′-Ethoxy-3,5-difluorobiphenyl-4-yl)-2-(hydroxymethyl)benzamide] | 17.8% | 14.8% | – | –
4 | CCOc1cccc(-c2cc(F)c(NC(=O)c3cccc(F)c3C(=O)O)c(Cl)c2)c1 [Example 38, 2-(3-Chloro-3′-ethoxy-5-fluorobiphenyl-4-ylcarbamoyl)-6-fluorobenzoic acid] | 9.35% | 27.8% | – | –
5 | O=C(O)c1ccccc1C(=O)Nc1c(F)cc(OCc2ccccc2)cc1F [Example 40, 2-[4-(Benzyloxy)-2,6-difluorophenylcarbamoyl]benzoic acid] | 8.79% | – | – | –
6 | O=C(O)c1ccccc1C(=O)Nc1c(F)cc(-c2cccc(OC(F)F)c2)cc1F [Example 43, 2-[3′-(Difluoromethoxy)-3,5-difluorobiphenyl-4-ylcarbamoyl]benzoic acid] | 6.82% | 58.2% | 181 nM | –
7 | O=C(O)c1ccccc1C(=O)Nc1c(F)cc(-c2cccc(OC(F)F)c2)cc1Cl [Example 44, 2-[3-Chloro-3′-(difluoromethoxy)-5-fluorobiphenyl-4-ylcarbamoyl]benzoic acid] | 35% | 71.1% | 90.6 nM | –
8 | COc1ccc(Cl)c(-c2cc(F)c(NC(=O)c3ccccc3C(=O)O)c(F)c2)c1 [Example 45, 2-(2′-Chloro-3,5-difluoro-5′-methoxybiphenyl-4-ylcarbamoyl)benzoic acid] | 48.5% | 96.2% | 44.1 nM | –
9 | COc1cc(F)cc(-c2cc(F)c(NC(=O)c3ccccc3C(=O)O)c(F)c2)c1 [Example 46, 2-(3,3′,5-Trifluoro-5′-methoxybiphenyl-4-ylcarbamoyl)benzoic acid] | 3.69% | 56% | – | –
10 | O=C(O)c1ccccc1C(=O)Nc1c(F)cc(-c2ccc3c(c2)OCO3)cc1F [Example 47, 2-[4-(Benzo[d][1,3]dioxol-5-yl)-2,6-difluorophenylcarbamoyl]benzoic acid] | 6.22% | 55.2% | – | –
11 | O=C(O)c1ccccc1C(=O)Nc1c(F)cc(-c2ccc3c(c2)OCO3)cc1Cl [Example 48, 2-[4-(Benzo[d][1,3]dioxol-5-yl)-2-chloro-6-fluorophenylcarbamoyl]benzoic acid] | 22% | 47.1% | – | –
12 | COc1ccc(-c2cc(F)c(NC(=O)c3ccccc3C(=O)O)c(F)c2)cc1OC [Example 49, 2-(3,5-Difluoro-3′,4′-dimethoxybiphenyl-4-ylcarbamoyl)benzoic acid] | 3.95% | – | – | –
13 | COc1cc(Cl)cc(-c2cc(F)c(NC(=O)c3ccccc3C(=O)O)c(Cl)c2)c1 [Example 51, 2-(3,3′-Dichloro-5-fluoro-5′-methoxybiphenyl-4-ylcarbamoyl)benzoic acid] | 10.8% | 26.6% | – | –
14 | O=C(O)c1ccccc1C(=O)Nc1c(F)cc(-c2ccc3c(c2)CCO3)cc1F [Example 52, 2-[4-(2,3-Dihydrobenzofuran-5-yl)-2,6-difluorophenylcarbamoyl]benzoic acid] | 13.8% | 12.8% | – | –
15 | O=C(O)c1ccccc1C(=O)Nc1c(F)cc(-c2ccc3c(c2)CCO3)cc1Cl [Example 53, 2-[2-Chloro-4-(2,3-dihydrobenzofuran-5-yl)-6-fluorophenylcarbamoyl]benzoic acid] | 8.28% | – | – | –
16 | Cc1nn(C)c2ccc(-c3cc(F)c(NC(=O)c4ccccc4C(=O)O)c(F)c3)cc12 [Example 54, 2-[4-(1,3-Dimethyl-1H-indazol-5-yl)-2,6-difluorophenylcarbamoyl]benzoic acid] | 22.6% | – | – | –
17 | COc1cc(Cl)cc(-c2cc(F)c(NC(=O)c3ccccc3C(=O)O)c(F)c2)c1 [Example 55, 2-(3′-Chloro-3,5-difluoro-5′-methoxybiphenyl-4-ylcarbamoyl)benzoic acid] | 5.66% | 44.5% | – | –

Row | Structure (SMILES) | inhibition at 10 µM (IL-17) | inhibition at 1 µM (h-DHODH) | IC50 (h-DHODH) | inhibition at 0.3 µM (h-DHODH)
18 | COc1ccc(-c2cc(F)c(NC(=O)c3ccccc3C(=O)O)c(Cl)c2)cc1OC [Example 56, 2-(3-Chloro-5-fluoro-3′,4′-dimethoxybiphenyl-4-ylcarbamoyl)benzoic acid] | 5.49% | 1.77% | – | –
19 | COc1ccc(Cl)c(-c2cc(F)c(NC(=O)c3ccccc3C(=O)O)c(Cl)c2)c1 [Example 57, 2-(2′,3-Dichloro-5-fluoro-5′-methoxybiphenyl-4-ylcarbamoyl)benzoic acid] | – | 68.1% | – | –
20 | COc1ccc(F)c(-c2cc(F)c(NC(=O)c3ccccc3C(=O)O)c(F)c2)c1 [Example 58, 2-(2′,3,5-Trifluoro-5′-methoxybiphenyl-4-ylcarbamoyl)benzoic acid] | 5.46% | 76.1% | – | –
21 | COc1cc(-c2cc(F)c(NC(=O)c3ccccc3C(=O)O)c(F)c2)ccc1Cl [Example 59, 2-(4′-Chloro-3,5-difluoro-3′-methoxybiphenyl-4-ylcarbamoyl)benzoic acid] | 7.36% | 34.5% | – | –
22 | COc1cc(-c2cc(F)c(NC(=O)c3ccccc3C(=O)O)c(Cl)c2)ccc1Cl [Example 60, 2-(3,4′-Dichloro-5-fluoro-3′-methoxybiphenyl-4-ylcarbamoyl)benzoic acid] | 20.3% | 41.8% | – | –
23 | COc1ccc(F)c(-c2cc(F)c(NC(=O)c3ccccc3C(=O)O)c(Cl)c2)c1 [Example 61, 2-(3-chloro-2′,5-difluoro-5′-methoxybiphenyl-4-ylcarbamoyl)benzoic acid] | 4.23% | 73.7% | – | –
24 | COc1cc(-c2cc(F)c(NC(=O)c3ccccc3C(=O)O)c(F)c2)ccc1F [Example 62, 2-(3,4′,5-trifluoro-3′-methoxybiphenyl-4-ylcarbamoyl)benzoic acid] | 8.34% | 12.4% | – | –
25 | Cc1c[nH]c2ccc(-c3cc(F)c(NC(=O)c4ccccc4C(=O)O)c(F)c3)cc12 [Example 63, 2-[2,6-difluoro-4-(3-methyl-1H-indol-5-yl)phenylcarbamoyl]benzoic acid] | 0% | 76.7% | 22 nM | –
26 | Cc1n[nH]c2ccc(-c3cc(F)c(NC(=O)c4ccccc4C(=O)O)c(F)c3)cc12 [Example 64, 2-[2,6-difluoro-4-(3-methyl-1H-indazol-5-yl)phenylcarbamoyl]benzoic acid] | 15.3% | 23.4% | – | –
27 | CCc1cccc(-c2cc(F)c(NC(=O)c3ccccc3C(=O)O)c(Cl)c2)c1 [Example 65, 2-(3-chloro-3′-ethyl-5-fluorobiphenyl-4-ylcarbamoyl)benzoic acid] | 11% | 71.2% | 146 nM | –
28 | CCOc1cccc(-c2cc(F)c(NC(=O)c3ccccc3C(=O)O)c(Cl)c2)c1F [Example 66, 2-(3-chloro-3′-ethoxy-2′,5-difluorobiphenyl-4-ylcarbamoyl)benzoic acid] | – | 87.5% | 84.4 nM | –
29 | O=C(O)c1ccccc1C(=O)Nc1c(F)cc(-c2ccc3c(c2)OCCO3)cc1Cl [Example 67, 2-[2-chloro-4-(2,3-dihydrobenzo[b][1,4]dioxin-6-yl)-6-fluorophenylcarbamoyl]benzoic acid] | 3.56% | 54.1% | – | –
30 | O=C(O)c1ccccc1C(=O)Nc1c(F)cc(-c2cccc(OCC(F)(F)F)c2)cc1Cl [Example 68, 2-[3-chloro-5-fluoro-3′-(2,2,2-trifluoroethoxy)biphenyl-4-ylcarbamoyl]benzoic acid] | – | 86.5% | 62.2 nM | –
31 | COc1cccc(-c2ccc(NC(=O)c3ccccc3C(=O)O)c(F)c2)c1 [Example 69, 2-(3-fluoro-3′-methoxybiphenyl-4-ylcarbamoyl)benzoic acid] | 5.54% | 22% | – | –
32 | CC[S+]([O-])c1cccc(-c2cc(F)c(NC(=O)c3ccccc3C(=O)O)c(F)c2)c1 (stereo not shown) [Example 72, 2-[3′-(ethylsulfinyl)-3,5-difluorobiphenyl-4-ylcarbamoyl]benzoic acid] | 7.36% | 16.9% | – | –
33 | O=C(O)c1ccccc1C(=O)Nc1c(F)cc(-c2cccc(OCC(F)(F)F)c2)cc1F [Example 83, 2-[3,5-difluoro-3′-(2,2,2-trifluoroethoxy)biphenyl-4-ylcarbamoyl]benzoic acid] | 8.79% | – | – | 43.6%
34 | CCc1cccc(-c2cc(F)c(NC(=O)c3ccccc3C(=O)O)c(F)c2)c1 [Example 84, 2-(3′-ethyl-3,5-difluorobiphenyl-4-ylcarbamoyl)benzoic acid] | 12.1% | – | – | 36.6%
